Assay results taken from USRE50050E1, “Pyrimidinedione compounds” (MyoKardia, Inc., priority 2013, dated 2024).

Target: T1, bovine cardiac myosin (Bos taurus, UniProt Q9BE39)
T1 construct: The source of cardiac myosin was from bovine heart in the form of skinned myofibrils; from tissue; host or cells: bovine heart, skinned myofibrils
Assay: Myosin inhibition assay (PK/LDH-coupled ATPase, bovine cardiac myofibrils)
Type: biochemical
Settings: bovine cardiac myofibrils, calcium giving 50% activation (pCa50); read-out: Biochemical Activity (pCa50)
Method: Small molecule agents were assessed for their ability to inhibit the enzymatic activity of bovine cardiac myosin using a biochemical assay that couples the release of ADP (adenosine diphosphate) from cardiac myosin to an enzymatic coupling system consisting of pyruvate kinase and lactate dehydrogenase (PK/LDH) and monitoring the absorbance decrease of NADH (at 340 nm) as a function of time. PK converts ADP to ATP (adenosine triphosphate) by converting PEP (phosphoenolpyruvate) to pyruvate. Pyruvate is then converted to lactate by LDH by converting NADH (nicotinamide adenine dinucleotide) to NAD (oxidized nicotinamide adenine dinucleotide). The source of cardiac myosin was from bovine heart in the form of skinned myofibrils. Prior to testing small molecule agents, the bovine myofibrils were assessed for their calcium responsiveness and the calcium concentration that achieves either a 50% (pCa50) or 75% (pCa75) activation of the myofibril system was chosen as the final condition for assessing the inhibitory activity of the small molecule agents. All enzymatic activity was measured in a buffered solution containing 12 mM PIPES (piperazine-N,N′-bis(2-ethanesulfonic acid), 2 mM magnesium chloride at pH 6.8 (PM 12 buffer). Final assay conditions were 1 mg/mL of bovine cardiac myofibrils, 0.4 mM PK/LDH, 50 uM ATP, 0.1 mg/mL BSA (bovine serum albumin), 10 ppm antifoam, 1 mM DTT, 0.5 mM NADH, 1.5 mM PEP at the desired free calcium concentration required to achieve either 50% or 75% activation of the myofibrils.
A dilution series of compound was created in DMSO such that the final desired concentration of compound would be achieved in a volume of 100 μL with a fixed DMSO concentration of 2% (v/v). Typically 2 μL of the dilution series were added to 96 well plate to achieve an 8 or 12 point dose response. Following the addition of 50 μL of a solution containing bovine cardiac myofibrils, PK/LDH and a solution of calcium (that achieved the desired activation), the enzymatic reaction was started with the addition of 50 μL of a solution containing ATP, PEP and NADH. The reaction progress was followed in a Molecular Devices M5e plate reader at ambient temperature using clear half area plates. The plate reader was configured to read absorbance at 340 nm in kinetics mode for 15 minutes. Data were recorded as the slope of the absorbance response to time. The slopes of the absorbance response as a function of time were normalized to slopes on the plate containing DMSO. This normalized rate was then plotted as a function of small molecule concentration and the data was fitted to a four-parameter fit using GraphPad Prism. The midpoint of this plot is the 1050 and is the concentration at which fifty percent of the total response is inhibited.

T1 sequence (Q9BE39 whole entry): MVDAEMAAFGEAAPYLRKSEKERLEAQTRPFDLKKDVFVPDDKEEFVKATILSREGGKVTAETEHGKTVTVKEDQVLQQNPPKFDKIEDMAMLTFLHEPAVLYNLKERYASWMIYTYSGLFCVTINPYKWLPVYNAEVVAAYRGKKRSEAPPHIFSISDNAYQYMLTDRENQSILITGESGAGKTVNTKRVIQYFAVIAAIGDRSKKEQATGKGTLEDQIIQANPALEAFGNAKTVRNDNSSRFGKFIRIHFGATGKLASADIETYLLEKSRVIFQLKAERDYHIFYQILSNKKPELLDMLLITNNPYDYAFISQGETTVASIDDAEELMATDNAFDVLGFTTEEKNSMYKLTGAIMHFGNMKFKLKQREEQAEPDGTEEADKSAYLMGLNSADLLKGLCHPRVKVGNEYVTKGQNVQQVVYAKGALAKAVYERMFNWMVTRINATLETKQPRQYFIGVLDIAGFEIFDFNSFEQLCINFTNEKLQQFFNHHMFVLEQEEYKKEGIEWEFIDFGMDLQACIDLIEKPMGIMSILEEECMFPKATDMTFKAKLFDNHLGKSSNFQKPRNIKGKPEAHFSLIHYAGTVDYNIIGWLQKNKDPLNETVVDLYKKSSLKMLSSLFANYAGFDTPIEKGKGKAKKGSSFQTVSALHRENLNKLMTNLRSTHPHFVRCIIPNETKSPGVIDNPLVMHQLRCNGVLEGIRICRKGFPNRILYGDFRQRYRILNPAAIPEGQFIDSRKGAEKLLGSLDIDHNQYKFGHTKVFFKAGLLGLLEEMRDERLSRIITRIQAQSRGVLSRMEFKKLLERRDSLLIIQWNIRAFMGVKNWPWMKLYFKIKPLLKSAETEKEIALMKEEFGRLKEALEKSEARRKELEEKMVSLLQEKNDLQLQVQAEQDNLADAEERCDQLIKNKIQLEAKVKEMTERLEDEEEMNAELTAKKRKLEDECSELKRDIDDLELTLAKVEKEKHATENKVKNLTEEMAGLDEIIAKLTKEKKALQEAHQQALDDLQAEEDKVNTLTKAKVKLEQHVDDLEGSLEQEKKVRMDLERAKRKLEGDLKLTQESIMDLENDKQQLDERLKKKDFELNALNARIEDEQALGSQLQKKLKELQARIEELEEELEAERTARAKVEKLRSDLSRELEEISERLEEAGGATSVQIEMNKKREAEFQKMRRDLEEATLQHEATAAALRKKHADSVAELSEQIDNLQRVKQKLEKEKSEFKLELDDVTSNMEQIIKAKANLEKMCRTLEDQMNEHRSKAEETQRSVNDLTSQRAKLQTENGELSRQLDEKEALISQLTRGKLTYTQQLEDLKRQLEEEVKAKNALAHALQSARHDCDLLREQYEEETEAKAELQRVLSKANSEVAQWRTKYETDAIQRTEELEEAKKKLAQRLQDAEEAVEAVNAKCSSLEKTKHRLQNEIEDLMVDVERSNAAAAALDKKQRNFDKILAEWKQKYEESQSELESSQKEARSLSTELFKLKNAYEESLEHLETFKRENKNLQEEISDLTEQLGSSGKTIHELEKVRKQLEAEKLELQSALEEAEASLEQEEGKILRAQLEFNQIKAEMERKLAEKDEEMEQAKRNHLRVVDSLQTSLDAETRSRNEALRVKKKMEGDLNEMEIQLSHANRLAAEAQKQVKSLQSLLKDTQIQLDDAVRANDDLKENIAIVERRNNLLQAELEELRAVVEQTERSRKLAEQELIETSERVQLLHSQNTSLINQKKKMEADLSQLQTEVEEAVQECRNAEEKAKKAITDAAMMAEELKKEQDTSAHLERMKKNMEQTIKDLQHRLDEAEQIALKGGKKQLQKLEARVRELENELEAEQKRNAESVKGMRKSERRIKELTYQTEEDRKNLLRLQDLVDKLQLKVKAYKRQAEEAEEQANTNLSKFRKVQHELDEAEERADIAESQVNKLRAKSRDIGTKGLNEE
T1 sequence (P85100 whole entry partner): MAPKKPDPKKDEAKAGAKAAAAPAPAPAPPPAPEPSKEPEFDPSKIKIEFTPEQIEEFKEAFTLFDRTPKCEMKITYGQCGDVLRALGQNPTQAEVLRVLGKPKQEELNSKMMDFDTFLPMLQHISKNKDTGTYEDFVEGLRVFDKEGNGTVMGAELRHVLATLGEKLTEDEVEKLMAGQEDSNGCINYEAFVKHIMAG
T1 sequence (Q3SZE5 whole entry partner): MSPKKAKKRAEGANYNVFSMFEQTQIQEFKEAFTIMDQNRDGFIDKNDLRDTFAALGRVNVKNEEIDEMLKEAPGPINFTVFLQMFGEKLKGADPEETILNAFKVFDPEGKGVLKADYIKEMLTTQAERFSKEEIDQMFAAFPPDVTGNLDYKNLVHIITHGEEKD

`CC(C)n1c(=O)cc(N[C@@H](COCc2ccccc2)c2ccccc2)[nH]c1=O` [Compound 64, (R)-6-((2-(benzyloxy)-1-phenylethyl)amino)-3-isopropylpyrimidine-2,4(1H,3H)-dione] and `CC(C)n1c(=O)cc(N[C@@H](CO)c2ccccc2)[nH]c1=O` [Compound 93] fall in the same range of IC50: 1000 to 15000 nM for the first, 1000 to 15000 nM for the second.

`Cc1cccc(-n2c(=O)cc(N[C@@H](C)c3ccccc3)[nH]c2=O)n1` [Compound 65, (S)-3-(6-methylpyridin-2-yl)-6-((1-phenylethyl)amino)pyrimidine-2,4(1H,3H)-dione] and `C[C@H](Nc1cc(=O)n(C(C)(C)C)c(=O)[nH]1)c1ccccc1` [Compound 101] fall in the same range of IC50: 1000 to 15000 nM for the first, 1000 to 15000 nM for the second.

`C[C@H](Nc1cc(=O)n(CC(F)F)c(=O)[nH]1)c1ccccc1` [Compound 66, (S)-3-(2,2-difluoroethyl)-6-((1-phenylethyl)amino)pyrimidine-2,4(1H,3H)-dione] and `COCCn1c(=O)cc(N[C@@H](C)c2ccccc2)[nH]c1=O` [Compound 102] fall in the same range of IC50: 1000 to 15000 nM for the first, 1000 to 15000 nM for the second.

`Cc1ccccc1[C@H](C)Nc1cc(=O)n(C(C)C)c(=O)[nH]1` [Compound 68, (S)-3-isopropyl-6-((1-(o-tolyl)ethyl)amino)pyrimidine-2,4(1H,3H)-dione] and `CC(C)n1c(=O)cc(N[C@@H](C)c2ccccc2O)[nH]c1=O` [Compound 116] cannot be ordered by IC50: < 1000 nM for the first, < 1000 nM for the second.

`C[C@H](Nc1cc(=O)n(C2CCC(F)(F)CC2)c(=O)[nH]1)c1ccccc1` [Compound 82] and `C[C@H](Nc1cc(=O)n([C@H](C)C2CC2)c(=O)[nH]1)c1ccccc1` [Compound 104] cannot be ordered by IC50: < 1000 nM for the first, < 1000 nM for the second.

`C[C@H](Nc1cc(=O)n([C@@H](C)CO)c(=O)[nH]1)c1ccccc1` [Compound 92] and `C[C@H](Nc1cc(=O)n(C(CO)CO)c(=O)[nH]1)c1ccccc1` [Compound 113] fall in the same range of IC50: 1000 to 15000 nM for the first, 1000 to 15000 nM for the second.

`C[C@H](Nc1cc(=O)n([C@@H](C)C(F)(F)F)c(=O)[nH]1)c1ccccc1` [Compound 95] and `CC[C@H](Nc1cc(=O)n([C@@H](C)C(F)(F)F)c(=O)[nH]1)c1ccccc1` [Compound 103] cannot be ordered by IC50: < 1000 nM for the first, < 1000 nM for the second.

First: C[C@H](Nc1cc(=O)n([C@@H](C)C2CC2)c(=O)[nH]1)c1ccccc1 [Compound 105]
Second: C[C@H](Nc1cc(=O)n(CC2CC2)c(=O)[nH]1)c1ccccc1 [Compound 110]
The IC50 of the first is lower: < 1000 nM for the first, 1000 to 15000 nM for the second. The first is the more potent here.

First: CCn1c(=O)cc(N[C@H](c2ccccc2)C2CCC2)[nH]c1=O [Compound 106]
Second: CCn1c(=O)cc(N[C@H](c2ccccc2)C2CC2)[nH]c1=O [Compound 122]
The IC50 of the first is lower: < 1000 nM for the first, 1000 to 15000 nM for the second. The first is the more potent here.

`CC(C)n1c(=O)cc(N[C@@H](C)c2ccc3c(c2)OCO3)[nH]c1=O` [Compound 107] and `CCn1c(=O)cc(N[C@@H](C)c2ccc3c(c2)OCO3)[nH]c1=O` [Compound 108] cannot be ordered by IC50: < 1000 nM for the first, < 1000 nM for the second.

`CC[C@H](Nc1cc(=O)n(CC(F)(F)F)c(=O)[nH]1)c1ccccc1` [Compound 109] and `O=c1cc(N[C@H](c2ccccc2)C2CC2)[nH]c(=O)n1CC(F)(F)F` [Compound 111] fall in the same range of IC50: 1000 to 15000 nM for the first, 1000 to 15000 nM for the second.

`O=c1cc(N[C@H](c2ccccc2)C2CCC2)[nH]c(=O)n1CC(F)(F)F` [Compound 112] and `C[C@H](Nc1cc(=O)n(C2(C(F)(F)F)CC2)c(=O)[nH]1)c1ccccc1` [Compound 117] cannot be ordered by IC50: < 1000 nM for the first, < 1000 nM for the second.

`C[C@H](n1c(=O)cc(N[C@@H](C)Cc2ccc(F)cc2)[nH]c1=O)C(F)(F)F` [Compound 114] and `C[C@@H](Cc1ccc(F)cc1)Nc1cc(=O)n(-c2cc(F)cc(F)c2)c(=O)[nH]1` [Compound 118] cannot be ordered by IC50: < 1000 nM for the first, < 1000 nM for the second.

Compared with `CC(C)n1c(=O)cc(N[C@@H](C)c2ccc3c(c2)OC(F)(F)O3)[nH]c1=O` [Compound 119], `CC(C)n1c(=O)[nH]c(N[C@@H](C)c2ccc3c(c2)OC(F)(F)O3)c(Cl)c1=O` [Compound 128] is higher in IC50: < 1000 nM for the first, 1000 to 15000 nM for the second.

`CC(C)n1c(=O)cc(N[C@@H](C)c2ccccc2Cl)[nH]c1=O` [Compound 120] and `COc1ccc([C@H](C)Nc2cc(=O)n(C(C)C)c(=O)[nH]2)cc1` [Compound 121] cannot be ordered by IC50: < 1000 nM for the first, < 1000 nM for the second.

`CCn1c(=O)cc(N[C@@H](C)c2cccc(Cl)c2)[nH]c1=O` [Compound 123] and `CCCn1c(=O)cc(N[C@@H](C)c2cccc(Cl)c2)[nH]c1=O` [Compound 130] cannot be ordered by IC50: < 1000 nM for the first, < 1000 nM for the second.

`CCn1c(=O)cc(N[C@@H](C)c2cccc(C(F)(F)F)c2)[nH]c1=O` [Compound 124] and `CCCn1c(=O)cc(N[C@@H](C)c2cccc(C(F)(F)F)c2)[nH]c1=O` [Compound 131] cannot be ordered by IC50: < 1000 nM for the first, < 1000 nM for the second.

`C[C@H](Nc1cc(=O)n(CC2CC2)c(=O)[nH]1)c1cccc(F)c1` [Compound 125] and `C[C@H](Nc1cc(=O)n(CC2CC2)c(=O)[nH]1)c1cccc(Cl)c1` [Compound 127] cannot be ordered by IC50: < 1000 nM for the first, < 1000 nM for the second.

`C[C@H](Nc1cc(=O)n(CC2CC2)c(=O)[nH]1)c1cccc(C(F)(F)F)c1` [Compound 126] and `CCCn1c(=O)cc(N[C@@H](C)c2cccc(F)c2)[nH]c1=O` [Compound 129] fall in the same range of IC50: 1000 to 15000 nM for the first, 1000 to 15000 nM for the second.

Same assay, conditions: bovine cardiac myofibrils, calcium giving 75% activation (pCa75); read-out: Biochemical Activity (pCa75)

`CC(C)n1c(=O)cc(N[C@@H](C)c2cccc(-n3ccnc3)c2)[nH]c1=O` [Compound 72] and `CC(C)n1c(=O)cc(N[C@@H](C)c2cccnc2)[nH]c1=O` [Compound 76] fall in the same range of IC50: 1000 to 15000 nM for the first, 1000 to 15000 nM for the second.

`C[C@H](Nc1cc(=O)n(-c2ccnnc2)c(=O)[nH]1)c1ccccc1` [Compound 73] and `C[C@H](Nc1cc(=O)n(-c2cncnc2)c(=O)[nH]1)c1ccccc1` [Compound 74] fall in the same range of IC50: 1000 to 15000 nM for the first, 1000 to 15000 nM for the second.

`C[C@H](Nc1cc(=O)n(-c2cnccn2)c(=O)[nH]1)c1ccccc1` [Compound 75] and `C[C@H](Nc1cc(=O)n(-c2cnn(C)c2)c(=O)[nH]1)c1ccccc1` [Compound 77] fall in the same range of IC50: 1000 to 15000 nM for the first, 1000 to 15000 nM for the second.

`CCC[C@H](Nc1cc(=O)n(C(C)C)c(=O)[nH]1)c1ccccc1` [Compound 78] and `CC(C)n1c(=O)cc(N[C@@H](CO)c2ccccc2)[nH]c1=O` [Compound 93] cannot be ordered by IC50: < 1000 nM for the first, < 1000 nM for the second.

First: C[C@H](Nc1cc(=O)n([C@@H]2CCCOC2)c(=O)[nH]1)c1ccccc1 [Compound 79]
Second: C[C@H](Nc1cc(=O)n(C2CCCC2)c(=O)[nH]1)c1ccccc1 [Compound 80]
The IC50 of the first is higher: 1000 to 15000 nM for the first, < 1000 nM for the second. The second is the more potent here.

`CC(C)[C@H](Nc1cc(=O)n(C(C)C)c(=O)[nH]1)c1ccccc1` [Compound 81] and `CC(C)n1c(=O)cc(N[C@@H](C)Cc2ccccc2)[nH]c1=O` [Compound 90] fall in the same range of IC50: 1000 to 15000 nM for the first, 1000 to 15000 nM for the second.

`C[C@H](Nc1cc(=O)n(C2CCC(F)(F)CC2)c(=O)[nH]1)c1ccccc1` [Compound 82] and `C[C@H](Nc1cc(=O)n(C2CCN(C(=O)c3ccccc3)CC2)c(=O)[nH]1)c1ccccc1` [Compound 84] cannot be ordered by IC50: < 1000 nM for the first, < 1000 nM for the second.

Compared with `CCC(CC)n1c(=O)cc(N[C@@H](C)c2ccccc2)[nH]c1=O` [Compound 83], `C[C@H](Nc1cc(=O)n([C@@H](C)CO)c(=O)[nH]1)c1ccccc1` [Compound 92] is higher in IC50: < 1000 nM for the first, 1000 to 15000 nM for the second. The first is the more potent here.

`CC(C)n1c(=O)cc(N[C@@H](C)CCc2ccccc2)[nH]c1=O` [Compound 85] and `C[C@H](Nc1cc(=O)n([C@H](C)C(F)(F)F)c(=O)[nH]1)c1ccccc1` [Compound 94] cannot be ordered by IC50: < 1000 nM for the first, < 1000 nM for the second.

`COC(=O)Cn1c(=O)cc(N[C@@H](C)c2ccccc2)[nH]c1=O` [Compound 86] and `C[C@H](Nc1cc(=O)n(CC(F)(F)F)c(=O)[nH]1)c1ccccc1` [Compound 100] fall in the same range of IC50: 1000 to 15000 nM for the first, 1000 to 15000 nM for the second.

First: C[C@H](Nc1cc(=O)n([C@@H](C)COCc2ccccc2)c(=O)[nH]1)c1ccccc1 [Compound 91]
Second: CC(CC(F)(F)F)n1c(=O)cc(N[C@@H](C)c2ccccc2)[nH]c1=O (stereo partly shown) [Compound 99]
The IC50 of the first is higher: 1000 to 15000 nM for the first, < 1000 nM for the second.

In the case of `C[C@H](Nc1cc(=O)n([C@@H](C)C(F)(F)F)c(=O)[nH]1)c1ccccc1` [Compound 95], the IC50 is reported as < 1000 nM.
